Measurements from publication PMC6696278 (International Journal of Molecular Sciences, 2019).

Columns and labels:
Type in all cases: binding
[1] = biological target: T1, human galectin-9C (C-terminal domain) (Homo sapiens, UniProt O00182); assay: competitive fluorescence polarization assay, galectin-9C; conditions: Table 1, average and SEM, PBS
T1 construct: 4N (N-terminal domain) 4C (C-terminal domain), 7, 8N, 8C, 9N, and 9C; made in house
Description: (§1) Human galectin-1 [25], galectin-2 [26], galectin-3 [27], galectin-4N [19], galectin-4C [19], galectin-8N [28], galectin-8C [28], galectin-9N [29], and galectin-9C [30], were expressed and purified as described earlier. Human galectin-7 was expressed using a pET3c plasmid in E. coli BL21-star. The plasmid containing expression optimized DNA encoding the full human galectin-7 sequence (NCBI Reference Sequence: NP_002298.1) was obtained from GenScript (Piscataway, NJ, USA). […] Lactose was removed by chromatography on a PD-10 column (Amersham Biosciences) with repeated ultrafiltration with Centriprep (Amicon).
(§2) Fluorescence polarization experiments were carried out either with a POLARStar plate reader and FLUOstar Galaxy software or with a PheraStarFS plate reader and PHERAstar Mars version 2.10 R3 software (BMG, Offenburg, Germany). The dissociation constant (Kd) values were determined in PBS as described earlier. Specific conditions for galectin-1, 2, 3, 4N, 4C, 8N, 8C, 9N, and 9C were kept as reported. Experiments were performed at room temperature with human galectin-7 at 5 µM and the fluorescent probe β-D-galactopyranosyl-(1–4)-2-acetamido-2-deoxy-β-d-glucopyranosyl-(1–3)-β-d-galactopyranosyl-(1–4)-(N1-fluorescein-5-yl-carbonylaminomethylcarbonyl)-β-D-glucopyranosylamine at 0.02 µM. All the compounds in Table 1 except 32 were dissolved in a neat DMSO at 100 mM and diluted in PBS to three to six different concentrations to be tested in duplicate.

[2] = biological target: T2, human galectin-8C (C-terminal domain) (Homo sapiens, UniProt O00214); assay: competitive fluorescence polarization assay, galectin-8C; conditions: Table 1, average and SEM, PBS
T2 construct: 4N (N-terminal domain) 4C (C-terminal domain), 7, 8N, 8C, 9N, and 9C; made in house
T2 sequence (O00214 187-317 limits assumed): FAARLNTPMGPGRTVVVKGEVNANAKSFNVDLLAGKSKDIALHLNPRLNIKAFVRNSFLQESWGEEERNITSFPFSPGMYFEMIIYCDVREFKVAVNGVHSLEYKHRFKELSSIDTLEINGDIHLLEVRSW
Description: as §1, §2

human galectin-3 = biological target: T3, human galectin-3 (Homo sapiens, UniProt P17931); assay: competitive fluorescence polarization assay, galectin-3; conditions: Table 1; average and SEM; PBS
T3 construct: made in house; host or cells: vector pET3c (the same vector as galectin-7)
Description: as §1, §2

[3] = biological target: T4, human galectin-4N (N-terminal domain) (Homo sapiens, UniProt P56470); assay: competitive fluorescence polarization assay, galectin-4N; conditions: for Kd: Table 1, N-terminal domain, average and SEM, PBS
T4 construct: 4N (N-terminal domain) 4C (C-terminal domain); made in house
T4 sequence (P56470 19-150 limits assumed): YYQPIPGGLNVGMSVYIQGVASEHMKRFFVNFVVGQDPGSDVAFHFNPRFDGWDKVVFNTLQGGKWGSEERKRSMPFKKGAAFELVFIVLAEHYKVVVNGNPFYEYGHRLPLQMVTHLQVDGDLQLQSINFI
Description: (§3) Human galectin-1 [25], galectin-2 [26], galectin-3 [27], galectin-4N [19], galectin-4C [19], galectin-8N [28], galectin-8C [28], galectin-9N [29], and galectin-9C [30], were expressed and purified as described earlier. Human galectin-7 was expressed using a pET3c plasmid in E. coli BL21-star. The plasmid containing expression optimized DNA encoding the full human galectin-7 sequence (NCBI Reference Sequence: NP_002298.1) was obtained from GenScript (Piscataway, NJ, USA). Bacterial culture and induction, and galectin purification was essential as described for galectin-3 expressed with the same vector [27]; a typical yield was 1.5–2 mg/L culture. Lactose was removed by chromatography on a PD-10 column (Amersham Biosciences) with repeated ultrafiltration with Centriprep (Amicon).
as §2

human galectin-1 = biological target: T5, human galectin-1 (Homo sapiens, UniProt P09382); assay: competitive fluorescence polarization assay, galectin-1; conditions: for Kd: Table 1, average and SEM of 4–8 single-triple point measurements, PBS
T5 construct: made in house
Description: as §1, §2

[4] = biological target: T6, human galectin-8N (N-terminal domain) (Homo sapiens, UniProt O00214); assay: competitive fluorescence polarization assay, galectin-8N; conditions: Table 1, average and SEM, PBS
T6 construct: 4N (N-terminal domain) 4C (C-terminal domain), 7, 8N, 8C, 9N, and 9C; made in house
T6 sequence (O00214 19-152 limits assumed): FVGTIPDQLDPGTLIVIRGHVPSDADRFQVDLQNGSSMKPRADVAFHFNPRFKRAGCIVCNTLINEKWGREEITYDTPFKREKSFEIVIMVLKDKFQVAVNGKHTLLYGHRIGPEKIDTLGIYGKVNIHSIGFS
Description: as §1, §2

[5] = biological target: T7, human galectin-9N (N-terminal domain) (Homo sapiens, UniProt O00182); assay: competitive fluorescence polarization assay, galectin-9N; conditions: Table 1, average and SEM, PBS
T7 construct: 4N (N-terminal domain) 4C (C-terminal domain), 7, 8N, 8C, 9N, and 9C; made in house
Description: as §3, §2

human galectin-7 = biological target: T8, human galectin-7 (Homo sapiens, UniProt P47929); assay: competitive fluorescence polarization assay, galectin-7; conditions: Table 1; average and SEM; PBS, room temperature, galectin-7 at 5 µM, probe 0.02 µM
T8 construct: made in house; host or cells: E. coli BL21-star, pET3c plasmid (DNA from GenScript)
Description: as §3, §2

human galectin-2 = biological target: T9, human galectin-2 (Homo sapiens, UniProt P05162); assay: competitive fluorescence polarization assay, galectin-2; conditions: Table 1; average and SEM; PBS
T9 construct: made in house
T9 sequence (P05162 1-132): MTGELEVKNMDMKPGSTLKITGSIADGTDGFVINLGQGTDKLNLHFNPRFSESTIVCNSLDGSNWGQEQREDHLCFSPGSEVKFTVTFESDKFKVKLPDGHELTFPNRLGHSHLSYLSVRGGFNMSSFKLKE
Description: as §3, §2

[6] = biological target: T10, human galectin-4C (C-terminal domain) (Homo sapiens, UniProt P56470); assay: competitive fluorescence polarization assay, galectin-4C; conditions: Table 1, average and SEM, PBS
T10 construct: 4N (N-terminal domain) 4C (C-terminal domain); made in house
T10 sequence (P56470 194-323 limits assumed): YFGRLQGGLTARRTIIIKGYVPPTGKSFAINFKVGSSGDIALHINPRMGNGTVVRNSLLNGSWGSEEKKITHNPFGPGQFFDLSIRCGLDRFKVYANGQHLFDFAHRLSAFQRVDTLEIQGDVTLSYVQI
Description: as §1, §2

T8 sequence (P47929 whole entry): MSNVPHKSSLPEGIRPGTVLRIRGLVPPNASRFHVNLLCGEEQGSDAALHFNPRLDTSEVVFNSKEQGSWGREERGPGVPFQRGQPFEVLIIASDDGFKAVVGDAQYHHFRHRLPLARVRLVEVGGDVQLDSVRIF
T7 sequence (O00182 17-148 limits assumed): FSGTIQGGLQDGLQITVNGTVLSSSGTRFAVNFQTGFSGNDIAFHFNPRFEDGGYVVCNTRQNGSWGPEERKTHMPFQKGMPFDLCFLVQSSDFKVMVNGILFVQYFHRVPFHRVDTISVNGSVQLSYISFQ
T3 sequence (P17931 whole entry): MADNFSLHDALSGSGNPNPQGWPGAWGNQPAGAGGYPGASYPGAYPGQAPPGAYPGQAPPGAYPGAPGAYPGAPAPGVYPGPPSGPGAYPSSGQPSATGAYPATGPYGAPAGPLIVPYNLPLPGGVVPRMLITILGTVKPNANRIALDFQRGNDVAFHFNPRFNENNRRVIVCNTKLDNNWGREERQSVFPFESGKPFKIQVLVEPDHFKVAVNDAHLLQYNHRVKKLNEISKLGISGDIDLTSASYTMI
T1 sequence (O00182 227-355 limits assumed): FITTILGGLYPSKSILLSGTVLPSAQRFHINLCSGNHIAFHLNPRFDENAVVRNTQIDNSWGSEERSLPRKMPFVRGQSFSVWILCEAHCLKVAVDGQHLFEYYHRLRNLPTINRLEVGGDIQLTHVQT
T5 sequence (P09382 whole entry): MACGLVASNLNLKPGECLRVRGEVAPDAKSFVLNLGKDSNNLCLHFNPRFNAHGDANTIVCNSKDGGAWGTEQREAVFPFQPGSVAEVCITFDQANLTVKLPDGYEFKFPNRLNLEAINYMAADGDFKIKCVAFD

Compound	Kd [1] [mM]	Kd [2] [mM]	Kd (human galectin-3) [mM]	Kd [3] [mM]	Kd (human galectin-1) [mM]	fold better affinity for galectin-1 than reference methyl β-D-galactopyranoside 32 (human galectin-1; ratio of Kd values) [fold]	Kd [4] [mM]	Kd [5] [mM]	Kd (human galectin-7) [mM]	binding to galectin-4N (in words) [3]	Kd (human galectin-2) [mM]	Kd [6] [mM]
CO[C@@H]1O[C@H](CO)[C@H](O)[C@H](COc2cccc(C(F)(F)F)c2)[C@H]1O [Compound 2, Methyl 3-Deoxy-3-C-(3-Trifluoromethylphenoxymethyl)-β-D-Galactopyranoside]	> 4	> 4	> 4	> 4	> 4		> 4	> 4	> 4		> 4	> 4
COC[C@H]1[C@@H](O)[C@@H](CO)O[C@@H](OC)[C@@H]1O [Compound 3, Methyl 3-Deoxy-3-C-Methoxymethyl-β-D-Galactopyranoside]		> 4	> 4		> 4		> 4					
CO[C@@H]1O[C@H](CO)[C@H](O)[C@H](Cn2cc(-c3cccc(F)c3)nn2)[C@H]1O [Compound 4, Methyl 3-Deoxy-3-C-[4-(3-Fluorophenyl)-1H-1,2,3-Triazol-1-Ylmethyl]-β-D-Galactopyranoside]	> 4	> 4	> 4	> 4	> 4		> 4	> 4	> 4		> 4	> 4
CO[C@@H]1O[C@H](CO)[C@H](O)[C@H](CNC(=O)Nc2cccc(F)c2)[C@H]1O [Compound 5, Methyl 3-Deoxy-3-C-(3-Fluorophenylureido)Methyl-β-D-Galactopyranoside]	> 4	> 4	> 4	> 4	> 4		> 4	> 4	> 4		> 4	> 4
CO[C@@H]1O[C@H](CO)[C@H](O)[C@@H](CNS(=O)(=O)c2ccccc2)[C@H]1O [Compound 6, Methyl 3-Deoxy-3-C-(Phenylsufonamido)Methyl-β-D-Galactopyranoside]	> 4	> 4	> 4	> 4	> 10		> 4		> 4			> 4

The remaining lines, values ahead:

Kd [1] [mM]	Kd [2] [mM]	Kd (human galectin-3) [mM]	Kd [3] [mM]	Kd (human galectin-1) [mM]	fold better affinity for galectin-1 than reference methyl β-D-galactopyranoside 32 (human galectin-1; ratio of Kd values) [fold]	Kd [4] [mM]	Kd [5] [mM]	Kd (human galectin-7) [mM]	binding to galectin-4N (in words) [3]	Kd (human galectin-2) [mM]	Kd [6] [mM]	Compound
> 4	3.7 ± 0.02	> 4	> 4	1.3 ± 0.15	7	> 4	> 4	> 4				CO[C@@H]1O[C@H](CO)[C@H](O)[C@@H](CO)[C@H]1O [Compound 1a, Methyl 3-Deoxy-3-C-Hydroxymethyl-β-D-Gulopyranoside]
> 4	> 4	> 4	> 4	> 4		> 4	> 4	> 4	weak binding	> 4	> 4	CO[C@@H]1O[C@H](CO)[C@H](O)[C@H](CO)[C@H]1O [Compound 1b, Methyl 3-Deoxy-3-C-Hydroxymethyl-β-D-Galactopyranoside]
